Results as given in patent US20260216183A1 (SHENZHEN NEWDEL BIOTECH CO., LTD., priority 2023, published 2026).

Legend:
[1] = Mouse body weight change in the oral administration experiment; assay type: in vivo, Balb/c mice; details: vs group 2 (vehicle)
Procedure: (§1) (1) Screening and grouping: 60 female 6- to 8-week-old Balb/c mice in total were used as experimental animals in this project, which were obtained from Shanghai Model Organisms Center, Inc. The first grouping was done before the start of the experiment. […] (2) Animal modeling: The day when the first grouping was done was designated as day (−7). The backs of the mice were depilated with depilatory cream (area of about 2 cm×3 cm). […] The 1% OXA solution was prepared by weighing 0.1 g of OXA powder, adding 10 mL of an acetone solution, mixing well, and dissolving. […] (3) The administration mode of the test substance: […] The mice were sacrificed on day 21. The skin of the right ear of the mice was left for pathological examination. The thickness of the epidermal layer and inflammatory cell infiltration were measured by H&E staining, and the thickness of the dermis layer was measured by Masson staining.

[2] = system: OXA-induced atopic dermatitis mouse model; assay: OXA-induced atopic dermatitis mouse model, oral administration; assay type: in vivo, Balb/c mice; details: for Inflammatory cell content in right ear tissue, Significance level: compared to G2 (vehicle); for Clinical scores of dorsal skin, Significance level / Rate of change in the thickness of the pinna of the right ear, Significance level / Thickness of dermis layer of right ear, Significance level / Thickness of epidermal layer of right ear, Significance level / Pinna thickness change rate at time point, Significance level: vs group 2 (vehicle); for Number of inflammatory cells per mm: right ear tissue, Mean ± SEM
Procedure: as §1

[3] = biological target: T1, DDR1 (Homo sapiens, UniProt Q08345); assay: DDR1 enzyme activity assay (HTRF); assay type: biochemical; details: ATP 25 μM
T1 construct: purchased Carna 08-113
Description: (§2) A kinase phosphorylates a substrate, and an antibody labeled with Eu-CryPtate binds to a phosphorylation site in the substrate; streptavidin-XL665 binds to the substrate biotin; when Eu and XL665 are close, Eu as a donor emits emission light (620 nm) after being excited by a light source (320 nm) and transfers energy resonance to a close XL665 receptor, and the receptor emits emission light (665 nm) after being excited; the specific signal is proportional to the phosphorylated substrate; when an inhibitor is added, the phosphorylation level is inhibited, the emission light at 665 nm is undetectable, and only the emission light at 620 nm is detected, so as to evaluate the level of inhibition of kinase activity by the compound.
Replicate wells were set for the assay. […] 2.5 μL of DDR1 (2.7 nM, 08-113, Carna) solution was transferred to a 384 reaction plate. The plate was centrifuged at 1000 rpm for 60 s using a centrifuge and incubated at 25° C. for 10 min. A mixed solution of 2× biotin-labeled tyrosine kinase substrate (1 μM) and ATP (25 μM) was prepared using the kinase reaction buffer. […] The fluorescence signals at 620 nm (Cryptate) and 665 nm (XL665) were read using a BMG microplate reader. The ratio of the fluorescence signals, i.e., (665 nm/620 nm)×10000, in each well was calculated, and the ratio represented the degree of the kinase activity.

[4] = biological target: T2, TRKC (Homo sapiens, UniProt Q16288); assay: TRKC enzyme activity assay (HTRF); assay type: biochemical; details: ATP 25 μM
T2 construct: purchased Carna 08-197
Description: as §2
Replicate wells were set for the assay. […] 2.5 μL of TRKC (1.5 nM, 08-197, Carna) solution was transferred to a 384 reaction plate. The plate was centrifuged at 1000 rpm for 60 s using a centrifuge and incubated at 25° C. for 10 min. A mixed solution of 2× biotin-labeled tyrosine kinase substrate (1 μM) and ATP (25 μM) was prepared using the kinase reaction buffer. […] The fluorescence signals at 620 nm (Cryptate) and 665 nm (XL665) were read using a BMG microplate reader. The ratio of the fluorescence signals, i.e., (665 nm/620 nm)×10000, in each well was calculated, and the ratio represented the degree of the kinase activity.

[5] = biological target: T3, TRKA (Homo sapiens, UniProt P04629); assay: TRKA enzyme activity assay (HTRF); assay type: biochemical; details: ATP 25 μM
T3 construct: purchased Carna 08-186
Description: as §2
Replicate wells were set for the assay. 25 nL of the compound was transferred to a 384 reaction plate (Catalog No. 784075, Greiner) using Echo 665. […] 2.5 μL of TRKA (1.5 nM, 08-186, Carna) solution was transferred to a 384 reaction plate. The plate was centrifuged at 1000 rpm for 60 s using a centrifuge and incubated at 25° C. for 10 min. […] The fluorescence signals at 620 nm (Cryptate) and 665 nm (XL665) were read using a BMG microplate reader. The ratio of the fluorescence signals, i.e., (665 nm/620 nm)×10000, in each well was calculated, and the ratio represented the degree of the kinase activity.

[6] = biological target: T4, DDR2 (Homo sapiens, UniProt Q16832); assay: DDR2 enzyme activity assay (HTRF); assay type: biochemical; details: ATP 25 μM
T4 sequence (Q16832 22-855): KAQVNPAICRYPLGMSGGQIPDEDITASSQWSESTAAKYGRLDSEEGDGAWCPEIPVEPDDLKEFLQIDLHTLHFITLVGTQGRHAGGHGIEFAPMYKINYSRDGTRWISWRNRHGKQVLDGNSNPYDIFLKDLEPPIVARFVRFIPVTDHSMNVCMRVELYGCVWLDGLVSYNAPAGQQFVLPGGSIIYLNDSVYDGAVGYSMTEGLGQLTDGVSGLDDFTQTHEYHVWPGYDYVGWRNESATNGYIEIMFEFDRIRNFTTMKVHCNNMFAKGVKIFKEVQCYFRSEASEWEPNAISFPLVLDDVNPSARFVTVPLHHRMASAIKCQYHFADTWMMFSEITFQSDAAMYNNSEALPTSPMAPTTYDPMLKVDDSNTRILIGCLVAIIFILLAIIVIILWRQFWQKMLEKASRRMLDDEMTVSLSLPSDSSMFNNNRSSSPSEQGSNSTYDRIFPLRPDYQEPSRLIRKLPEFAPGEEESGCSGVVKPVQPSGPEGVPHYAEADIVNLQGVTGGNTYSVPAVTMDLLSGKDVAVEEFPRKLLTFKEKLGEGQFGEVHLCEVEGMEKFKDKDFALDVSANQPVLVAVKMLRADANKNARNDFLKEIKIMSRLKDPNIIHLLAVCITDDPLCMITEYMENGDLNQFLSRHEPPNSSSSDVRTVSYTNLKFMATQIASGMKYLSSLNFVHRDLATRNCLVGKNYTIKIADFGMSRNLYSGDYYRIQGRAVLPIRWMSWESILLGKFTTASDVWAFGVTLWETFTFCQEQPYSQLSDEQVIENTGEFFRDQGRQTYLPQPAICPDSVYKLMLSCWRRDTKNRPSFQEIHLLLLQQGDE
Procedure: Replicate wells were set for the assay. […] 2.5 μL of DDR2 (1.3 nM, 08-114, Carna) solution was transferred to a 384 reaction plate. The plate was centrifuged at 1000 rpm for 60 s using a centrifuge and incubated at 25° C. for 10 min. A mixed solution of 2× biotin-labeled tyrosine kinase substrate (1 μM) and ATP (25 μM) was prepared using the kinase reaction buffer. 2.5 μL of the mixed solution of the substrate and ATP was added to the reaction plate to start the reaction, and the plate was centrifuged at 1000 rpm for 60 s using the centrifuge. The plate was sealed with a plate-sealing film and incubated at 25° C. for 40 min. 5 μL of a mixed solution of Eu-CryPtate-labeled anti-tyrosine kinase antibody and streptavidin-XL665 was added to each well of the reaction plate. The plate was centrifuged at 1000 rpm for 1 min and incubated at 25° C. for 60 min. The fluorescence signals at 620 nm (Cryptate) and 665 nm (XL665) were read using a BMG microplate reader. The ratio of the fluorescence signals, i.e., (665 nm/620 nm)×10000, in each well was calculated, and the ratio represented the degree of the kinase activity.

[7] = biological target: T5, CSF1R (Homo sapiens, UniProt P07333); assay: CSF1R enzyme activity assay (HTRF); assay type: biochemical; details: ATP 25 μM
T5 construct: purchased Carna 08-114
T5 sequence (P07333 538-972 limits assumed): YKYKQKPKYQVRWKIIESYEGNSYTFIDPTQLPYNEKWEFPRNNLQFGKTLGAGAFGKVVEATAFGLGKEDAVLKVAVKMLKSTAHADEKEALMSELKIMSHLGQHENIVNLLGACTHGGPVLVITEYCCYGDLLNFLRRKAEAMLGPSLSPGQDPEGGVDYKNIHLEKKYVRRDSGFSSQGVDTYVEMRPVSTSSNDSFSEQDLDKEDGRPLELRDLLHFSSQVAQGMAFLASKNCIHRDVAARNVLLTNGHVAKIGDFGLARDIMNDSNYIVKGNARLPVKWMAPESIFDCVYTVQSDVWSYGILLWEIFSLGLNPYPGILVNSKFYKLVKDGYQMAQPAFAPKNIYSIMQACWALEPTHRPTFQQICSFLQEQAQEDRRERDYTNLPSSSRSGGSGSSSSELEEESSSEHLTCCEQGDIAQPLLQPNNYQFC
Description: as §2
Replicate wells were set for the assay. […] 2.5 μL of CSF1R (1.3 nM, 08-114, Carna) solution was transferred to a 384 reaction plate. The plate was centrifuged at 1000 rpm for 60 s using a centrifuge and incubated at 25° C. for 10 min. A mixed solution of 2× biotin-labeled tyrosine kinase substrate (1 μM) and ATP (25 μM) was prepared using the kinase reaction buffer. […] The fluorescence signals at 620 nm (Cryptate) and 665 nm (XL665) were read using a BMG microplate reader. The ratio of the fluorescence signals, i.e., (665 nm/620 nm)×10000, in each well was calculated, and the ratio represented the degree of the kinase activity.

T3 sequence (P04629 33-796): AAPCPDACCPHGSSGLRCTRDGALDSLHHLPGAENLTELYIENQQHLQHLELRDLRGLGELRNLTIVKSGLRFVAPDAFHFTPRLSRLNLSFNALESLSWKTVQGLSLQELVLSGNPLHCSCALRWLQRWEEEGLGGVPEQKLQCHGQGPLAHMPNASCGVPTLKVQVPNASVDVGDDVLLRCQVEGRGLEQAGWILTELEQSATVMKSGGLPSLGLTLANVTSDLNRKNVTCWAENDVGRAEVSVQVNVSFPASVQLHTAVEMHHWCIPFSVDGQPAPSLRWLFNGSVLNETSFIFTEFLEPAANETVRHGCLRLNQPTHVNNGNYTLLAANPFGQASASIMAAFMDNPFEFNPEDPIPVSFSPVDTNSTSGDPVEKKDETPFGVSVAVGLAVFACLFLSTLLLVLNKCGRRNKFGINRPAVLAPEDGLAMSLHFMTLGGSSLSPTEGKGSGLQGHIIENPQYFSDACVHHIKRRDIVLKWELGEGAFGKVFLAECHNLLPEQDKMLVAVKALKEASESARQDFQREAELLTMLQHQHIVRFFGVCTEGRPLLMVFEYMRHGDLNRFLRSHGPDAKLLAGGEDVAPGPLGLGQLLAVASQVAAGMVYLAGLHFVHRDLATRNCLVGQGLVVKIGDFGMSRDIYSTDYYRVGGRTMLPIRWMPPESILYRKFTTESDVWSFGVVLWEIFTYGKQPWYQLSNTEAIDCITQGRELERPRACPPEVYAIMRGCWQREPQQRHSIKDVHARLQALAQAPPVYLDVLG
T1 sequence (Q08345 19-913): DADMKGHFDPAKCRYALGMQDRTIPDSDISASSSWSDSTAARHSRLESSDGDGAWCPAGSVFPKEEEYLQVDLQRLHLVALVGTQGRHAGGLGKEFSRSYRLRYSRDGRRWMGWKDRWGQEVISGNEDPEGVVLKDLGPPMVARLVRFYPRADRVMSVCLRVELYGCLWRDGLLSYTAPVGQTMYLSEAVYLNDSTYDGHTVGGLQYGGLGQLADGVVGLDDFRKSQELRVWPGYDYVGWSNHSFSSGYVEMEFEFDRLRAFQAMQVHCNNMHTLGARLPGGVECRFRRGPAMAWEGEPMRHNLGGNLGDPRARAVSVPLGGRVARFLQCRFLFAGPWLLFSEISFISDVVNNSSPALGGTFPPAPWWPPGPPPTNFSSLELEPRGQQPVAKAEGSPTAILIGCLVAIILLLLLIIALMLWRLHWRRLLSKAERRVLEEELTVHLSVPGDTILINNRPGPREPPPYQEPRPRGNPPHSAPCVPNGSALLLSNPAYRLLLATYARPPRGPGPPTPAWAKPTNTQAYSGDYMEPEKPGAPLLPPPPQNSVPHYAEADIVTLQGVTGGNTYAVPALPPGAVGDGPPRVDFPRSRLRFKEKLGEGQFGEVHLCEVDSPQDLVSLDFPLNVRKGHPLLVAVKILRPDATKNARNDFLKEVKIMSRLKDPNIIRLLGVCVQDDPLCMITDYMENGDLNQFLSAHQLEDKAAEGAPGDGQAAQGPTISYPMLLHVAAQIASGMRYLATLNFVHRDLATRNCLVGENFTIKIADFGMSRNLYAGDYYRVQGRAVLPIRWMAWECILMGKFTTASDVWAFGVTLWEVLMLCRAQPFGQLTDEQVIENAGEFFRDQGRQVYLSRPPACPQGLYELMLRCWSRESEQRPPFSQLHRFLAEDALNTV
T2 sequence (Q16288 32-839): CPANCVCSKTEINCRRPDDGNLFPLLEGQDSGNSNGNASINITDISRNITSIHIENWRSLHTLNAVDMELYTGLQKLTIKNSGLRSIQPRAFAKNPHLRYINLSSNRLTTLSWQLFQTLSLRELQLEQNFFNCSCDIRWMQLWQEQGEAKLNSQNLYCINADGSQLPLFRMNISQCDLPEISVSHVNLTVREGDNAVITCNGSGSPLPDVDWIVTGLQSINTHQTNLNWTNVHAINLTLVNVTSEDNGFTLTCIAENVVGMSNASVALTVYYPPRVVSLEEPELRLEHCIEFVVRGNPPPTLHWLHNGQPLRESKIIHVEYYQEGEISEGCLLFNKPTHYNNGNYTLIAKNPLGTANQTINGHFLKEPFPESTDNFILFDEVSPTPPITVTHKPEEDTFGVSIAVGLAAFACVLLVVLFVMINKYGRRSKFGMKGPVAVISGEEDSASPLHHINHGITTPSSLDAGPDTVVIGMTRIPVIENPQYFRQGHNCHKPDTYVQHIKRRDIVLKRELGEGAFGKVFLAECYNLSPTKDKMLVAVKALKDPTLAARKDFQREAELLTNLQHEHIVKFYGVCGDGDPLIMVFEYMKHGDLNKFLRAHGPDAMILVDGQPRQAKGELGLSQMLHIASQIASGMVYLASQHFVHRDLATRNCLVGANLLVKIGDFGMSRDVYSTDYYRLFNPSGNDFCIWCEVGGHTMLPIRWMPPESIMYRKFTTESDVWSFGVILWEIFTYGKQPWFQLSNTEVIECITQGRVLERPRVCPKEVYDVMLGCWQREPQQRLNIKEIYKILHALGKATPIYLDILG

## CCCS(=O)(=O)N[C@H]1C[C@@H](N(C)c2ncnc3[nH]ccc23)C1 [Abrocitinib, reference compound]
[1]; 17 mpk p.o. once daily 22 days
  Rate of change in body weight, Significance level: ns (p>0.05)
[2]; 17 mpk p.o. once daily 22 days
  Inflammatory cell content in right ear tissue, Significance level: * (*p<0.05)
  Clinical scores of dorsal skin, Significance level: * (*p<0.05)
  Rate of change in the thickness of the pinna of the right ear, Significance level: **** (****p<0.0001)
  Thickness of dermis layer of right ear, Significance level: *** (***p<0.001)
  Thickness of epidermal layer of right ear, Significance level: ns (p>0.05)
  Number of inflammatory cells per mm: 236 ± 26.59 cells per mm
[2]; day 3, 17 mpk p.o. once daily
  Pinna thickness change rate at time point, Significance level: ns (p>0.05)
[2]; day 5, 17 mpk p.o. once daily
  Pinna thickness change rate at time point, Significance level: ns (p>0.05)
[2]; day 7, 17 mpk p.o. once daily
  Pinna thickness change rate at time point, Significance level: ns (p>0.05)
[2]; day 10, 17 mpk p.o. once daily
  Pinna thickness change rate at time point, Significance level: ** (**p<0.01)
[2]; day 12, 17 mpk p.o. once daily
  Pinna thickness change rate at time point, Significance level: * (*p<0.05)
[2]; day 14, 17 mpk p.o. once daily
  Pinna thickness change rate at time point, Significance level: ** (**p<0.01)
[2]; day 17, 17 mpk p.o. once daily
  Pinna thickness change rate at time point, Significance level: ns (p>0.05)
[2]; day 19, 17 mpk p.o. once daily
  Pinna thickness change rate at time point, Significance level: ** (**p<0.01)
[2]; day 21, 17 mpk p.o. once daily
  Pinna thickness change rate at time point, Significance level: * (*p<0.05)

## Cc1c(C#Cc2cnc3ccc(N4CCC(O)CC4)nn23)cccc1C(=O)Nc1cc(Cl)cc(C(F)(F)F)c1 [compound 1, N-(3-chloro-5-(trifluoromethyl)phenyl)-3-((6-(4-hydroxypiperidin-1-yl)imidazo[1,2-b]pyridazin-3-yl)ethynyl)-2-methylbenzamide]
[3]
  IC50: 0.762 nM
[4]
  IC50: 0.35 nM
[5]
  IC50: 4.4 nM
[1]; 3 mpk p.o. once daily 22 days
  Rate of change in body weight, Significance level: ** (**p<0.01)
[1]; 10 mpk p.o. once daily 22 days
  Rate of change in body weight, Significance level: ns (p>0.05)
[1]; 30 mpk p.o. once daily 22 days
  Rate of change in body weight, Significance level: ns (p>0.05)
[2]; 3 mpk p.o. once daily 22 days
  Inflammatory cell content in right ear tissue, Significance level: *** (***p<0.001)
  Clinical scores of dorsal skin, Significance level: ns (p>0.05)
  Rate of change in the thickness of the pinna of the right ear, Significance level: * (*p<0.05)
  Thickness of dermis layer of right ear, Significance level: **** (****p<0.0001)
  Thickness of epidermal layer of right ear, Significance level: * (*p<0.05)
  Number of inflammatory cells per mm: 189 ± 27.25 cells per mm
[2]; 10 mpk p.o. once daily 22 days
  Inflammatory cell content in right ear tissue, Significance level: *** (***p<0.001)
  Clinical scores of dorsal skin, Significance level: * (*p<0.05)
  Rate of change in the thickness of the pinna of the right ear, Significance level: **** (****p<0.0001)
  Thickness of dermis layer of right ear, Significance level: **** (****p<0.0001)
  Thickness of epidermal layer of right ear, Significance level: * (*p<0.05)
  Number of inflammatory cells per mm: 162 ± 18.31 cells per mm
[2]; 30 mpk p.o. once daily 22 days
  Inflammatory cell content in right ear tissue, Significance level: *** (***p<0.001)
  Clinical scores of dorsal skin, Significance level: *** (***p<0.001)
  Rate of change in the thickness of the pinna of the right ear, Significance level: **** (****p<0.0001)
  Thickness of dermis layer of right ear, Significance level: **** (****p<0.0001)
  Thickness of epidermal layer of right ear, Significance level: * (*p<0.05)
  Number of inflammatory cells per mm: 160 ± 34.18 cells per mm
[2]; day 3, 3 mpk p.o. once daily
  Pinna thickness change rate at time point, Significance level: ns (p>0.05)
[2]; day 3, 10 mpk p.o. once daily
  Pinna thickness change rate at time point, Significance level: ns (p>0.05)
[2]; day 3, 30 mpk p.o. once daily
  Pinna thickness change rate at time point, Significance level: ** (**p<0.01)
[2]; day 5, 3 mpk p.o. once daily
  Pinna thickness change rate at time point, Significance level: ns (p>0.05)
[2]; day 5, 10 mpk p.o. once daily
  Pinna thickness change rate at time point, Significance level: ns (p>0.05)
[2]; day 5, 30 mpk p.o. once daily
  Pinna thickness change rate at time point, Significance level: ** (**p<0.01)
[2]; day 7, 3 mpk p.o. once daily
  Pinna thickness change rate at time point, Significance level: ns (p>0.05)
[2]; day 7, 10 mpk p.o. once daily
  Pinna thickness change rate at time point, Significance level: ns (p>0.05)
[2]; day 7, 30 mpk p.o. once daily
  Pinna thickness change rate at time point, Significance level: ** (**p<0.01)
[2]; day 10, 3 mpk p.o. once daily
  Pinna thickness change rate at time point, Significance level: * (*p<0.05)
[2]; day 10, 10 mpk p.o. once daily
  Pinna thickness change rate at time point, Significance level: ** (**p<0.01)
[2]; day 10, 30 mpk p.o. once daily
  Pinna thickness change rate at time point, Significance level: ** (**p<0.01)
[2]; day 12, 3 mpk p.o. once daily
  Pinna thickness change rate at time point, Significance level: ns (p>0.05)
[2]; day 12, 10 mpk p.o. once daily
  Pinna thickness change rate at time point, Significance level: ns (p>0.05)
[2]; day 12, 30 mpk p.o. once daily
  Pinna thickness change rate at time point, Significance level: ** (**p<0.01)
[2]; day 14, 3 mpk p.o. once daily
  Pinna thickness change rate at time point, Significance level: ns (p>0.05)
[2]; day 14, 10 mpk p.o. once daily
  Pinna thickness change rate at time point, Significance level: ** (**p<0.01)
[2]; day 14, 30 mpk p.o. once daily
  Pinna thickness change rate at time point, Significance level: ** (**p<0.01)
[2]; day 17, 3 mpk p.o. once daily
  Pinna thickness change rate at time point, Significance level: ns (p>0.05)
[2]; day 17, 10 mpk p.o. once daily
  Pinna thickness change rate at time point, Significance level: ns (p>0.05)
[2]; day 17, 30 mpk p.o. once daily
  Pinna thickness change rate at time point, Significance level: * (*p<0.05)
[2]; day 19, 3 mpk p.o. once daily
  Pinna thickness change rate at time point, Significance level: ns (p>0.05)
[2]; day 19, 10 mpk p.o. once daily
  Pinna thickness change rate at time point, Significance level: ** (**p<0.01)
[2]; day 19, 30 mpk p.o. once daily
  Pinna thickness change rate at time point, Significance level: *** (***p<0.001)
[2]; day 21, 3 mpk p.o. once daily
  Pinna thickness change rate at time point, Significance level: ns (p>0.05)
[2]; day 21, 10 mpk p.o. once daily
  Pinna thickness change rate at time point, Significance level: ** (**p<0.01)
[2]; day 21, 30 mpk p.o. once daily
  Pinna thickness change rate at time point, Significance level: *** (***p<0.001)
[6]
  IC50: 37.9 nM
[7]
  IC50: 14.7 nM
